In patent US20170290852A1, “MICELLE FORMULATIONS OF AMPHOTERICIN B” (Wisconsin Alumni Research Foundation, priority 2016, published 2017):
Converted amounts (≈) assume the structure as drawn.

How the values were obtained:
[1] = tested on: bovine red blood cells; details: 5-FC alone, 25-100 μg/ml
[2] = tested on: C. albicans SC5314 (ATCC MYA-2876); assay: Minimum inhibitory concentration (MIC); format: cell-based; details: for 5-FC the concentration inhibiting ≧50% by absorbance
Description: (§1) To prepare the inoculation, the fungal strains were cultured for approximately 24 hours on Sabouraud dextrose agar (SDA) plates were diluted to a 0.5 McFarland standard (1-5×10^6 CFU/mL) in sterile normal saline and diluted 100-fold in yeast peptone dextrose (YPD). Inoculum was added to serial dilutions of AmB in 96-well plates, following the microplate dilution method. Plates were sealed with Breathe Easier membranes (Sigma Aldrich, St. Louis, Mo.). ATCC 9763 or K1 was incubated at 30° C. or 37° C., respectively, for 18-20 hours. […] SDA was prepared with 1% peptone, 4% glucose, and 1.5% agar in deionized water. YPD media was prepared with 1% yeast extract, 2% peptone, and 2% glucose in deionized water. Autoclaving was used to sterilize media.
(§2) For 5-FC, the concentration necessary to inhibit ≧50% as determined by absorbance is reported.

[3] = tested on: C. albicans Gu5 (ATCC MYA-574); assay: Minimum inhibitory concentration (MIC); format: cell-based; details: for 5-FC the concentration inhibiting ≧50% by absorbance
Description: as §1, §2

[4] = tested on: C. albicans strain K1; assay: Minimum inhibitory concentration (MIC); format: cell-based; details: K1 (Example 6); for 5-FC the concentration inhibiting ≧50% by absorbance
Description: as §1, §2

[5] = tested on: K1; assay: Neutropenic mouse model of disseminated candidiasis; format: in vivo, ICR/Swiss mice; details: 48 hours; 72 mg/kg 5-FC

MIC [2]: 20 µg/mL (≈ 155 µM) | MIC [3]: 81 µg/mL (≈ 627 µM) | MIC [4]: 64 µg/mL (≈ 496 µM)
SMILES: Nc1nc(=O)[nH]cc1F [5-FC, 5-fluorocytosine]
hemolytic activity [1]: < 0.4% | fungal burden of the control group relative to treated group [5]: 1.2 times
